Test results: patent US5278308A, “Iodine derivatives of tetrabenazine” (The Trustees of The University of Pennsylvania, priority 1992, dated 1994)
Read-outs that look alike come from different tables or passages of the source.

Columns and labels:
[1] = Protein binding by TCA (10% rat plasma, 30 min, 37° C.); format: in vitro ADME; details: rat, 10% plasma, TCA precipitation
Method: One ml of 10% rat plasma was mixed with [^123 I]I-TBZ in a test tube and the mixture was incubated for 30 minutes at 37° C. To the mixture 0.4 mL of 10% trichloroacetic acid (TCA) was added. The test tube was centrifuged for 10 min. (4,000 rpm), and the top aqueous layer was removed to another test tube for counting The precipitate was washed with water (0.5 mL×2). The combined water and top aqueous layer was counted. The residual precipitate was also counted. The protein binding was obtained by dividing counts in precipitate with counts in aqueous layers.

[2] = Protein binding by Filter (50% rat plasma, Amicon micropartition system); format: in vitro ADME; details: rat, 50% plasma, 30 min, 37° C.
Method: One mL of rat plasma (50%) was mixed with [^123 I]I-TBZ in a test tube. After 30 min incubation at 37° C., 50 uL ×3 of liquid was removed as initial dose standard (I.D.); the rest was passed through an Amicon micropartition system (Amicon division, W. R. Grace, Danvers, Mass.) by centrifuging for 20 minutes (2,000 rpm) at 0° C. Four samples (50 uL each) were removed from the filtered solution and counted. The protein binding (% bound) was calculated by using the unit counts in filtrate divided by unit counts in ID.

[3] = Biodistribution in rats (iv injection); format: in vivo; details: rat, iv
Method: While under ether anesthesia, each rat was injected in the femoral vein with 0.2 mL saline solution containing [^123 I]I-TBZ (1-5uCi) either racemic mixture, peak-A or peak-B. The rats were sacrificed at various time points postinjection by cardiac excision. The tissues were weighed and the radioactivity was measured with a Canberra gamma counter (Model 5000). The percent dose per organ was calculated by a comparison of the tissue counts to suitably diluted aliquots of the injected material. Total activities of blood and muscle were calculated assuming that they were 7% and 40% of total body weight, respectively Results are presented in Tables 3, 4A and 4B.

[4] = Regional brain distribution in rats (dissection, iv injection); format: in vivo; details: for Str./Cb (% dose/gram ratio) / Regional brain uptake, Rem / Regional brain uptake, cerebellum / Regional brain uptake, cortex / Regional brain uptake, hippocampus / Regional brain uptake, striatum / tissue uptake at 5 min / tissue uptake at 20 min: rat
Method: Regional brain distribution of [^123 I]I-TBZ (with either a racemic mixture, peak A or B) in rats was obtained after an iv injection. By dissecting, weighing and counting samples from different brain regions (cortex, striatum, hippocampus and cerebellum), % dose/gram of the samples was calculated by comparing the sample counts with the counts of the diluted initial dose. The ratio of uptake in each region was obtained by dividing % dose/gram of each region with that of the cerebellum. The effect of tetrahydrobenazine on the uptake of peak A or peak B was investigated by pretreating the rats with the TBZ 3 mg/rat at 3 min before iv injection of [^123 I]I-TBZ. At 20 min. post injection the rats were dissected and the regional brain dissection was carried out as above.

[5] = 20 min, pretreated with TBZ 3 min before, n = 2
[6] = 120 min, listed as I-TBZ peak A

Work on `COc1cc2c(cc1OC)C1CC(O)(C=C[123I])C(CC(C)C)CN1CC2` (single isomer, unassigned) [Peak A] yielded a fraction unbound at 0.5 h [1] of 0.619, a fraction unbound at 0.5 h [2] of 0.182 and a Brain uptake ([3]; 2 min) of 1.2 % Dose/organ. For the same molecule, the “Blood uptake (blood assumed 7% of body weight)” value ([3]; 5 min) was 2.15 ± 0.11 % Dose/organ, the “Br/Bl (% dose/gram ratio)” value ([3]; 5 min) was 5.51 ± 0.37 and the Brain uptake ([3]; 5 min) was 1.12 ± 0.15 % Dose/organ. The Heart uptake ([3]; 5 min) was 0.91 ± 0.17 % Dose/organ, the Kidney uptake ([3]; 5 min) was 4.43 ± 0.56 % Dose/organ and the Liver uptake ([3]; 5 min) was 21.23 ± 2.66 % Dose/organ. For the same molecule, the Lung uptake ([3]; 5 min) was 2.85 ± 0.52 % Dose/organ, the “Muscle uptake (muscle assumed 40% of body weight)” value ([3]; 5 min) was 11.96 ± 1.56 % Dose/organ and the Skin uptake ([3]; 5 min) was 8.72 ± 1.52 % Dose/organ. For the same molecule, the Spleen uptake ([3]; 5 min) was 0.62 ± 0.13 % Dose/organ, the Thyroid uptake ([3]; 5 min) was 0.08 ± 0.01 % Dose/organ and the “Blood uptake (blood assumed 7% of body weight)” value ([3]; 20 min) was 1.42 ± 0.56 % Dose/organ. The “Br/Bl (% dose/gram ratio)” value ([3]; 20 min) was 4.59 ± 1.10, the Brain uptake ([3]; 20 min) was 0.58 ± 0.01 % Dose/organ and the Heart uptake ([3]; 20 min) was 0.49 ± 0.04 % Dose/organ. For the same molecule, the Kidney uptake ([3]; 20 min) was 2.21 ± 0.11 % Dose/organ, the Liver uptake ([3]; 20 min) was 16.16 ± 4.71 % Dose/organ and the Lung uptake ([3]; 20 min) was 1.65 ± 0.11 % Dose/organ. The “Muscle uptake (muscle assumed 40% of body weight)” value ([3]; 20 min) was 26.79 ± 7.14 % Dose/organ, the Skin uptake ([3]; 20 min) was 9.00 ± 5.10 % Dose/organ and the Spleen uptake ([3]; 20 min) was 0.44 ± 0.06 % Dose/organ. For the same molecule, the Thyroid uptake ([3]; 20 min) was 0.05 ± 0.01 % Dose/organ, the “Blood uptake (blood assumed 7% of body weight)” value [3, 5] was 2.05 ± 0.21 % Dose/organ and the “Br/Bl (% dose/gram ratio)” value [3, 5] was 4.10 ± 0.27. The Brain uptake [3, 5] was 0.85 ± 0.12 % Dose/organ, the Heart uptake [3, 5] was 0.61 ± 0.11 % Dose/organ and the Kidney uptake [3, 5] was 2.03 ± 0.24 % Dose/organ. The Liver uptake [3, 5] was 13.34 ± 4.06 % Dose/organ, the Lung uptake [3, 5] was 1.74 ± 0.002 % Dose/organ and the “Muscle uptake (muscle assumed 40% of body weight)” value [3, 5] was 29.70 ± 2.56 % Dose/organ. It also gave a Skin uptake [3, 5] of 7.08 ± 2.33 % Dose/organ, a Spleen uptake [3, 5] of 0.06 ± 0.07 % Dose/organ and a Thyroid uptake [3, 5] of 0.08 ± 0.01 % Dose/organ. The “Blood uptake (blood assumed 7% of body weight)” value ([3]; 60 min) was 1.14 ± 0.16 % Dose/organ, the “Br/Bl (% dose/gram ratio)” value ([3]; 60 min) was 3.05 ± 0.12 and the Brain uptake ([3]; 60 min) was 0.33 ± 0.07 % Dose/organ. For the same molecule, the Heart uptake ([3]; 60 min) was 0.38 ± 0.07 % Dose/organ, the Kidney uptake ([3]; 60 min) was 1.52 ± 0.28 % Dose/organ and the Liver uptake ([3]; 60 min) was 10.12 ± 1.26 % Dose/organ. The Lung uptake ([3]; 60 min) was 1.17 ± 0.06 % Dose/organ, the “Muscle uptake (muscle assumed 40% of body weight)” value ([3]; 60 min) was 21.88 ± 2.74 % Dose/organ and the Skin uptake ([3]; 60 min) was 14.76 ± 4.35 % Dose/organ. For the same molecule, the Spleen uptake ([3]; 60 min) was 0.36 ± 0.04 % Dose/organ, the Thyroid uptake ([3]; 60 min) was 0.07 ± 0.01 % Dose/organ and the “Blood uptake (blood assumed 7% of body weight)” value ([3]; 120 min) was 0.95 ± 0.03 % Dose/organ. The “Br/Bl (% dose/gram ratio)” value ([3]; 120 min) was 1.96 ± 0.43, the Brain uptake ([3]; 120 min) was 0.18 ± 0.04 % Dose/organ and the Heart uptake ([3]; 120 min) was 0.26 ± 0.03 % Dose/organ. The Kidney uptake ([3]; 120 min) was 1.05 ± 0.1q, the Liver uptake ([3]; 120 min) was 7.54 ± 0.77 % Dose/organ and the Lung uptake ([3]; 120 min) was 0.81 ± 0.14 % Dose/organ. For the same molecule, the “Muscle uptake (muscle assumed 40% of body weight)” value ([3]; 120 min) was 18.56 ± 2.34 % Dose/organ, the Skin uptake ([3]; 120 min) was 11.22 ± 3.92 % Dose/organ and the Spleen uptake ([3]; 120 min) was 0.23 ± 0.04 % Dose/organ. The Thyroid uptake ([3]; 120 min) was 0.07 ± 0.05 % Dose/organ, the “Regional distribution / selectivity in rat brain (in words)” value [4] was “significantly increased selective regional distribution” and the “Str./Cb (% dose/gram ratio)” value ([4]; 5 min, listed as I-TBZ peak A) was 1.09. The “Regional brain uptake, Rem” value ([4]; 20 min, listed as I-TBZ peak A) was 0.395 ± 0.019 % Dose/g, the “Regional brain uptake, cerebellum” value ([4]; 20 min, listed as I-TBZ peak A) was 0.362 ± 0.017 % Dose/g and the “Regional brain uptake, cortex” value ([4]; 20 min, listed as I-TBZ peak A) was 0.420 ± 0.031 % Dose/g. For the same molecule, the “Regional brain uptake, hippocampus” value ([4]; 20 min, listed as I-TBZ peak A) was 0.414 ± 0.032 % Dose/g, the “Regional brain uptake, striatum” value ([4]; 20 min, listed as I-TBZ peak A) was 0.479 ± 0.014 % Dose/g and the “Str./Cb (% dose/gram ratio)” value ([4]; 20 min, listed as I-TBZ peak A) was 1.32. For the same molecule, the “Str./Cb (% dose/gram ratio)” value [4, 5] was 1.12, the “Regional brain uptake, Rem” value ([4]; 60 min, listed as I-TBZ peak A) was 0.229 ± 0.036 % Dose/g and the “Regional brain uptake, cerebellum” value ([4]; 60 min, listed as I-TBZ peak A) was 0.225 ± 0.029 % Dose/g. The “Regional brain uptake, cortex” value ([4]; 60 min, listed as I-TBZ peak A) was 0.234 ± 0.035 % Dose/g, the “Regional brain uptake, hippocampus” value ([4]; 60 min, listed as I-TBZ peak A) was 0.230 ± 0.048 % Dose/g and the “Regional brain uptake, striatum” value ([4]; 60 min, listed as I-TBZ peak A) was 0.271 ± 0.046 % Dose/g. For the same molecule, the “Str./Cb (% dose/gram ratio)” value ([4]; 60 min, listed as I-TBZ peak A) was 1.21, the “Regional brain uptake, Rem” value [4, 6] was 0.118 ± 0.022 % Dose/g and the “Regional brain uptake, cerebellum” value [4, 6] was 0.116 ± 0.026 % Dose/g. The “Regional brain uptake, cortex” value [4, 6] was 0.129 ± 0.019 % Dose/g, the “Regional brain uptake, hippocampus” value [4, 6] was 0.113 ± 0.041 % Dose/g and the “Regional brain uptake, striatum” value [4, 6] was 0.138 ± 0.022 % Dose/g. The “Str./Cb (% dose/gram ratio)” value [4, 6] was 1.19, the tissue uptake at 5 min ([4]; brain remainder, 5 min, read-out: Regional brain uptake, Rem) was 0.74 ± 0.063 %ID/g and the tissue uptake at 20 min ([4]; brain remainder, 20 min, pretreated with TBZ 3 min before, n = 2, read-out: Regional brain uptake, Rem) was 0.545 ± 0.047 %ID/g. The tissue uptake at 5 min ([4]; cerebellum, 5 min, read-out: Regional brain uptake, cerebellum) was 0.708 ± 0.044 %ID/g, the tissue uptake at 20 min ([4]; cerebellum, 20 min, pretreated with TBZ 3 min before, n = 2, read-out: Regional brain uptake, cerebellum) was 0.534 ± 0.032 %ID/g and the tissue uptake at 5 min ([4]; cortex, 5 min, read-out: Regional brain uptake, cortex) was 0.792 ± 0.096 %ID/g. The tissue uptake at 20 min ([4]; cortex, 20 min, pretreated with TBZ 3 min before, n = 2, read-out: Regional brain uptake, cortex) was 0.585 ± 0.067 %ID/g, the tissue uptake at 5 min ([4]; hippocampus, 5 min, read-out: Regional brain uptake, hippocampus) was 0.725 ± 0.066 %ID/g and the tissue uptake at 20 min ([4]; hippocampus, 20 min, pretreated with TBZ 3 min before, n = 2, read-out: Regional brain uptake, hippocampus) was 0.581 ± 0.075 %ID/g. The tissue uptake at 5 min ([4]; striatum, 5 min, read-out: Regional brain uptake, striatum) was 0.77 ± 0.019 %ID/g and the tissue uptake at 20 min ([4]; striatum, 20 min, pretreated with TBZ 3 min before, n = 2, read-out: Regional brain uptake, striatum) was 0.596 %ID/g.
